Reference: US9446127B2, “Compositions including androgen receptor degradation (ARD) enhancers and methods of prophylactic or therapeutic treatment of skin disorders and hair loss” (AndroScience Corporation, priority 2007, dated 2016)

Assays:
LNCaP tumor = test: LNCaP xenograft tumor growth in nude mice; format: in vivo; details: 100 mg/kg/day ip three times per week, 7 weeks
Procedure: In the related in vivo studies, LNCaP human prostate tumor cells are xenografted into nude mice by subcutaneous injection (2×10^6 per site). Mice are subsequently treated, by intraperitoneal injection, with either the vehicle solution as control or the test compounds (ASC-J9 at a dose of 100 milligrams per kilogram body weight), three times a week for 7 weeks. Tumor volume is measured twice a week over the next 7 weeks. […] Data in FIG. 12 show two nude mice received xenografted LNCaP tumor and one treated with vehicle solution (left) and the other with ASC-J9 (right). A significant reduction in tumor size and PSA content in plasma were detected in animal received ASC-J9 treatment. Such results can be taken as a strong indication that the suppression of AR activity and the resulting reduction of tumor growth induced by AR-degrading compounds such as ASC-J9, may be translated into a practical use for treating or preventing diseases and disorders related to AR activity, such as prostate and other cancers.
Two million LNCaP tumor cells were inoculated, subcutaneously, into the left flank of nude mice. In the experimental animals, the nude mice were give an intraperitoneal (ip) injection of compound ASC-J9 at 100 mg/kg/day three times per week or with vehicle control only. After 7 weeks of treatment the tumors were excised, weighed and compared. […] In addition, PSA (prostate specific antigen) level in plasma from animal treated with ASC-J9 reduced 90% (reduce from 57.0 ng/ml to 7.6 ng/ml).

[1] = system: testosterone-induced hair growth suppression; test: Testosterone-induced alopecia model, hair re-growth; format: in vivo, C57BL/6J mice; details: testosterone mornings
Procedure: C57BL/6J mice were used in this animal model for hair loss and regrowth (Uno et al. (1990) J. Cutaneous Aging & Cosm. Derm., 1:193, which is incorporated by reference in its entirety herein). Six-week-old male mice (6 to 7 animals per group) were shaved with an electric clipper, and then treated with a hair-removal cream for 1 to 2 minutes. […] One day after hair removal, a first group of animals each received 100 microliters of a 1% testosterone solution in ethanol, applied topically to the shaved area, once each morning for twenty consecutive days. A second group of animals each received 100 microliters of vehicle (ethanol) alone, applied topically to the shaved area, once each morning for twenty consecutive days. The first group of mice (testosterone-treated) were divided further into a control group and a treatment group. Also beginning one day after hair removal, each mouse in the control group received 100 microliters of a control solution (60% ethanol, 20% propylene glycol, and 20% water) and each mouse in the treatment group received 100 microliters of the test compound, ASC-J9 (0.02% in the same 60% ethanol, 20% propylene glycol, and 20% water solution), applied topically to the shaved area, once each afternoon for twenty consecutive days. Hair re-growth in the shaved areas was observed and photographed at 0, 4, 8, 11 and 14 days after beginning of the topical treatments.

androgen receptor (AR) = biological target: T1, androgen receptor (AR) (Homo sapiens, UniProt P10275); test: Specificity Western blot in T47D cell lysates, AR; format: cell-based; details: 5 or 10 micromolar, presence or absence of estrodial (E2)
T1 construct: Incubating T47D cells with ASC-J9 (5 or 10 micromolar) in the presence or absence of estrodial (E2) decreased the cellular concentrations of AR; endogenous in cells; host or cells: T47D
T1 sequence (P10275 1-920): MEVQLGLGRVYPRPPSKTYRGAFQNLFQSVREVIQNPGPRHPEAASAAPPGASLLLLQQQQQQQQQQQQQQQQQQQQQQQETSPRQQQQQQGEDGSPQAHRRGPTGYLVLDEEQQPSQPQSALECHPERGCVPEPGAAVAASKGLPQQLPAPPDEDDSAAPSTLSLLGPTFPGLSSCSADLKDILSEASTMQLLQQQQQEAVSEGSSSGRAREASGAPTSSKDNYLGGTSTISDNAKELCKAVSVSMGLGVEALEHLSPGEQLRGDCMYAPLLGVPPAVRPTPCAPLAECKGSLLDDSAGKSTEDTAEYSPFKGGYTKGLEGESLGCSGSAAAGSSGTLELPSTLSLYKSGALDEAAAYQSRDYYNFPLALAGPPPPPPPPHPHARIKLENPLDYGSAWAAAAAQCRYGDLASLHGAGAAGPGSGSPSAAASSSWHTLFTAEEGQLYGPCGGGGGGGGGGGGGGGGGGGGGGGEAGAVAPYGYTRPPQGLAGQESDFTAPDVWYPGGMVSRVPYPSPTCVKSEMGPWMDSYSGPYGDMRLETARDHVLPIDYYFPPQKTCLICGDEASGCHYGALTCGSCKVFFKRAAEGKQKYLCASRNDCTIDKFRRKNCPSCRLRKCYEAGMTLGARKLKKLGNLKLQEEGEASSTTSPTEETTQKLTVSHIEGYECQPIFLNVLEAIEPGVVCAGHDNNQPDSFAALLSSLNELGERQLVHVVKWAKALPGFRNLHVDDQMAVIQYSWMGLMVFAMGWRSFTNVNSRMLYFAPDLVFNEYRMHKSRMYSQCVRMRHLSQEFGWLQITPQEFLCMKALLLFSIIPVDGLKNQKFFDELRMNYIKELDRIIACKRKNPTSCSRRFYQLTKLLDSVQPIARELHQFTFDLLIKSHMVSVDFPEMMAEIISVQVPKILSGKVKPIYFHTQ
Procedure: Human prostate cancer LNCaP cells and T47D cells were plated at a density of 7×10^5 cells per 60 millimeter tissue culture dish in […] medium containing 10% FBS. The medium was changed to RPMI or DME medium containing 10% charcoal-stripped serum 24 hours later to deplete cellular androgens or estrogens. After another 24 hours, treatment with the test compounds began. The test dose of ASC-J9 was 1, and 5 and micromolar. LNCap cells also received dihydrotestosterone (DHT) (3 nanomolar). Control cells received a corresponding amount of the vehicle, dimethylsulfoxide (DMSO) (<0.04%) for an equivalent exposure time. Cells were incubated with ASC-J9 for 24 hours, and were lysed in 250 microliters of 1×SDS/PAGE loading buffer. Approximately 40 micrograms of total cellular protein was loaded in each lane of a pre-cast gel (NuPAGE, Invitrogen). Protein separation and transfer were performed following the manufacturer's instructions.

For COc1ccc(C=CC(=O)C=C(O)C=Cc2ccc(OC)c(OC)c2)cc1OC [ASC-J9, 5-hydroxy-1,7-bis(3,4-dimethoxyphenyl)-1,4,6-heptatrien-3-one], the “reduction of PSA level in plasma” value (LNCaP tumor) was 90%, the “reduction in tumor size” value (LNCaP tumor; vs vehicle control) was 75% and the “PSA (prostate specific antigen) level in plasma” value (LNCaP tumor; reduced from 57.0 ng/ml) was 7.6 ng/mL. The tumor weight (LNCaP tumor; vehicle control 0.694 g) was 0.172 g, the “hair re-growth in shaved areas” value ([1]; 0.02% topical afternoons, day 8 to day 17) was “rapid re-growth of hair” and the “hair re-growth in shaved areas” value ([1]; topical afternoons, after 20 days) was “fully re-growth of hair”. For the same compound, the “cellular concentration of AR” value (androgen receptor (AR)) was “decreased”.
